Measured values reported in patent US6399629B1, “Efflux pump inhibitors” (priority 1998, dated 2002).

System: Pseudomonas aeruginosa PAM1001
Assay: checkerboard assay (broth microdilution): levofloxacin MIC in presence of efflux pump inhibitor
Type: cell-based
Method in brief: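 Checkerboard broth microdilution in Mueller Hinton Broth against P. aeruginosa PAM1001 (5×10^5 CFU/mL, early-log inoculum), levofloxacin and efflux pump inhibitor (up to 40 μg/mL) diluted along crossing axes. Plates incubated 20 h at 35° C; growth read at 650 nm and visually. Potentiation scored as reduced levofloxacin MIC.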

Molecule | MIC (Pseudomonas aeruginosa, PAM1001, read-out: MIC of levofloxacin against P. aeruginosa PAM1001) | Levofloxacin MIC Against P. aerugiuosa PAM1001 in Presence of Efflux Pump Inhibitor (EPI), Minimum Inhibitory Concentration (EPI Conc. 0 μg/mL) | Levofloxacin MIC Against P. aerugiuosa PAM1001 in Presence of Efflux Pump Inhibitor (EPI), Minimum Inhibitory Concentration (EPI Conc. 0.625 μg/mL) | Levofloxacin MIC Against P. aerugiuosa PAM1001 in Presence of Efflux Pump Inhibitor (EPI), Minimum Inhibitory Concentration (EPI Conc. 1.25 μg/mL) | Levofloxacin MIC Against P. aerugiuosa PAM1001 in Presence of Efflux Pump Inhibitor (EPI), Minimum Inhibitory Concentration (EPI Conc. 2.5 μg/mL) | Levofloxacin MIC Against P. aerugiuosa PAM1001 in Presence of Efflux Pump Inhibitor (EPI), Minimum Inhibitory Concentration (EPI Conc. 5 μg/ mL) | Levofloxacin MIC Against P. aerugiuosa PAM1001 in Presence of Efflux Pump Inhibitor (EPI), Minimum Inhibitory Concentration (EPI Conc. 10 μg/mL) | Levofloxacin MIC Against P. aerugiuosa PAM1001 in Presence of Efflux Pump Inhibitor (EPI), Minimum Inhibitory Concentration (EPI Conc. 20 μg/mL) | Levofloxacin MIC Against P. aerugiuosa PAM1001 in Presence of Efflux Pump Inhibitor (EPI), Minimum Inhibitory Concentration (EPI Conc. 40 μg/mL)
C[C@H]1COc2c(N3CCN(C)CC3)c(F)cc3c(=O)c(C(=O)O)cn1c23 [levofloxacin, reference compound] | 4 µg/mL |  |  |  |  |  |  |  | 
CCc1ccc2ncc(NC(=O)[C@@H](CCc3ccccc3)NC(=O)[C@H]3C[C@H](CN)CN3)cc2c1 [Compound M14, (2R,4R)-4-(Aminomethyl)-N-[(1R)-3-phenyl-1-(6-ethyl-3-quiolylcarbamoyl)propyl]-2-pyrrolidinecarboxamide] |  | 4 µg/mL | 4 µg/mL | 4 µg/mL | 2 µg/mL | 0.03 µg/mL | 0.03 µg/mL | 0.03 µg/mL | 
Cc1cc2nc(C(O)[C@@H](CCc3ccccc3)NC(=O)[C@H]3C[C@H](NC(=O)[C@@H](C)N)CN3)oc2cc1C (mixture of isomers) [Compound M66, (2R,4S)-4-[(2R)-2-Aminopropionamido]-N-[(1R)-1-[(RS)-(5,6-dimethyl-2-benzoxaaolyl)hydroxymethyl]-3-phenylpropyl]-2-pyrrolidinecarboxamide] |  | 4 µg/mL | 4 µg/mL | 4 µg/mL | 4 µg/mL | 4 µg/mL | 0.125 µg/mL | 0.015 µg/mL | 0.015 µg/mL
(2S,4R)-4-(2-Aminoacetamido)-N-[4-benzyl-2-benzimidazolyl)ethyl]-2-pyrrolidinecarboxamide [Compound M99] |  | 4 µg/mL | 4 µg/mL | 4 µg/mL | 4 µg/mL | 4 µg/mL | 4 µg/mL | 0.06 µg/mL | 0.03 µg/mL
NCCC(=O)N[C@H]1CN[C@H](C(=O)N[C@H](CCc2ccccc2)C(=O)Nc2cnc3ccccc3c2)C1 [Compound M6, (2S,4R)-4-[3-(Aminopropionamido])-N-[(1R)-3-phenyl-1-(3-quinolylcarbamoyl)propyl]-2-pyrrolidinecarboxamide] |  | 4 µg/mL | 4 µg/mL | 4 µg/mL | 4 µg/mL | 4 µg/mL | 2 µg/mL | 0.06 µg/mL | 0.015 µg/mL
Cc1ccc2ncc(C(=O)NC[C@H]3C[C@H](CN)CN3)cc2c1 [Compound M72, (2R,4R)-4-(Aminomethyl)-2-(6-methyl-3-quinolylcarboxamidomethyl)pyrrolidine] |  | 4 µg/mL | 4 µg/mL | 4 µg/mL | 4 µg/mL | 4 µg/mL | 4 µg/mL | 2 µg/mL | 0.5 µg/mL
NCC(=O)N[C@H]1CN[C@H](c2nc3ccccc3n2CCc2ccccc2)C1 [Compound M75, (2S,4R)-4-(2-Aminoacetamido)-2-(1-(2-phenyl)ethyl-2-benzimidazolyl)pyrrolidine] |  | 4 µg/mL | 4 µg/mL | 4 µg/mL | 4 µg/mL | 4 µg/mL | 4 µg/mL | 1 µg/mL | 0.03 µg/mL
CC(N)C(=O)N[C@H]1CN[C@H](C(=O)N[C@H](CCc2ccccc2)C(=O)Nc2cnc3ccccc3c2)C1 (stereo partly drawn) [Compound M4, (2S,4R)-4-(2-Aminopropionamido]-N-[(1R)-3-pheyl-1-(3-quinolylcarbamoyl)propyl]-2-pyrrolidinecarboxamide] |  | 4 µg/mL | 4 µg/mL | 4 µg/mL | 4 µg/mL | 2 µg/mL | 2 µg/mL | 1 µg/mL | 0.015 µg/mL
C[C@@H](N)C(=O)N[C@@H]1CN[C@@H](C(=O)N(CCC(C)(C)C)CC(=O)Nc2cnc3ccccc3c2)C1 [Compound M47] |  | 4 µg/mL | 4 µg/mL | 4 µg/mL | 4 µg/mL | 4 µg/mL | 4 µg/mL | 2 µg/mL | 0.03 µg/mL
